Measurements: BigSolDB 2.1

O=C1OC(=O)[C@H]2[C@@H]1[C@H]1C=C[C@@H]2C1
solubility (mole fraction) (in 1,4-dioxane, 288.15 K): 0.177 | solubility (mole fraction) (in 1,4-dioxane, 293.15 K): 0.199 | solubility (mole fraction) (in 1,4-dioxane, 298.15 K): 0.221 | solubility (mole fraction) (in 1,4-dioxane, 303.15 K): 0.249 | solubility (mole fraction) (in 1,4-dioxane, 308.15 K): 0.273 | solubility (mole fraction) (in 1,4-dioxane, 313.15 K): 0.304 | solubility (mole fraction) (in 1,4-dioxane, 318.15 K): 0.334 | solubility (mole fraction) (in 1,4-dioxane, 323.15 K): 0.37 | solubility (mole fraction) (in DMF, 278.15 K): 0.209 | solubility (mole fraction) (in DMF, 283.15 K): 0.23 | solubility (mole fraction) (in DMF, 288.15 K): 0.246 | solubility (mole fraction) (in DMF, 293.15 K): 0.267 | solubility (mole fraction) (in DMF, 298.15 K): 0.288 | solubility (mole fraction) (in DMF, 303.15 K): 0.309 | solubility (mole fraction) (in DMF, 308.15 K): 0.337 | solubility (mole fraction) (in DMF, 313.15 K): 0.361 | solubility (mole fraction) (in DMF, 318.15 K): 0.389 | solubility (mole fraction) (in DMF, 323.15 K): 0.419 | solubility (mole fraction) (in NMP, 278.15 K): 0.257 | solubility (mole fraction) (in NMP, 283.15 K): 0.271 | solubility (mole fraction) (in NMP, 288.15 K): 0.289 | solubility (mole fraction) (in NMP, 293.15 K): 0.305 | solubility (mole fraction) (in NMP, 298.15 K): 0.325 | solubility (mole fraction) (in NMP, 303.15 K): 0.345 | solubility (mole fraction) (in NMP, 308.15 K): 0.371 | solubility (mole fraction) (in NMP, 313.15 K): 0.392 | solubility (mole fraction) (in NMP, 318.15 K): 0.421 | solubility (mole fraction) (in NMP, 323.15 K): 0.448 | solubility (mole fraction) (in acetone, 278.15 K): 0.13 | solubility (mole fraction) (in acetone, 283.15 K): 0.144 | solubility (mole fraction) (in acetone, 288.15 K): 0.162 | solubility (mole fraction) (in acetone, 293.15 K): 0.179 | solubility (mole fraction) (in acetone, 298.15 K): 0.201 | solubility (mole fraction) (in acetone, 303.15 K): 0.223 | solubility (mole fraction) (in acetone, 308.15 K): 0.251 | solubility (mole fraction) (in acetone, 313.15 K): 0.276 | solubility (mole fraction) (in acetone, 318.15 K): 0.308 | solubility (mole fraction) (in ethanol, 278.15 K): 0.00405 | solubility (mole fraction) (in ethanol, 283.15 K): 0.00536 | solubility (mole fraction) (in ethanol, 288.15 K): 0.00707 | solubility (mole fraction) (in ethanol, 293.15 K): 0.00927 | solubility (mole fraction) (in ethanol, 298.15 K): 0.0117 | solubility (mole fraction) (in ethanol, 303.15 K): 0.0155 | solubility (mole fraction) (in ethanol, 308.15 K): 0.02 | solubility (mole fraction) (in ethanol, 313.15 K): 0.0255 | solubility (mole fraction) (in ethanol, 318.15 K): 0.0321 | solubility (mole fraction) (in ethanol, 323.15 K): 0.0404 | solubility (mole fraction) (in ethyl acetate, 278.15 K): 0.0719 | solubility (mole fraction) (in ethyl acetate, 283.15 K): 0.0849 | solubility (mole fraction) (in ethyl acetate, 288.15 K): 0.101 | solubility (mole fraction) (in ethyl acetate, 293.15 K): 0.115 | solubility (mole fraction) (in ethyl acetate, 298.15 K): 0.134 | solubility (mole fraction) (in ethyl acetate, 303.15 K): 0.154 | solubility (mole fraction) (in ethyl acetate, 308.15 K): 0.176 | solubility (mole fraction) (in ethyl acetate, 313.15 K): 0.201 | solubility (mole fraction) (in ethyl acetate, 318.15 K): 0.226 | solubility (mole fraction) (in ethyl acetate, 323.15 K): 0.254 | solubility (mole fraction) (in isopentyl acetate, 278.15 K): 0.0426 | solubility (mole fraction) (in isopentyl acetate, 283.15 K): 0.0504 | solubility (mole fraction) (in isopentyl acetate, 288.15 K): 0.0608 | solubility (mole fraction) (in isopentyl acetate, 293.15 K): 0.07 | solubility (mole fraction) (in isopentyl acetate, 298.15 K): 0.0818 | solubility (mole fraction) (in isopentyl acetate, 303.15 K): 0.0952 | solubility (mole fraction) (in isopentyl acetate, 308.15 K): 0.107 | solubility (mole fraction) (in isopentyl acetate, 313.15 K): 0.125 | solubility (mole fraction) (in isopentyl acetate, 318.15 K): 0.145 | solubility (mole fraction) (in isopentyl acetate, 323.15 K): 0.165 | solubility (mole fraction) (in isopropyl acetate, 278.15 K): 0.0541 | solubility (mole fraction) (in isopropyl acetate, 283.15 K): 0.0637 | solubility (mole fraction) (in isopropyl acetate, 288.15 K): 0.0745 | solubility (mole fraction) (in isopropyl acetate, 293.15 K): 0.0862 | solubility (mole fraction) (in isopropyl acetate, 298.15 K): 0.102 | solubility (mole fraction) (in isopropyl acetate, 303.15 K): 0.117 | solubility (mole fraction) (in isopropyl acetate, 308.15 K): 0.133 | solubility (mole fraction) (in isopropyl acetate, 313.15 K): 0.152 | solubility (mole fraction) (in isopropyl acetate, 318.15 K): 0.172 | solubility (mole fraction) (in isopropyl acetate, 323.15 K): 0.196 | solubility (mole fraction) (in methyl acetate, 278.15 K): 0.0936 | solubility (mole fraction) (in methyl acetate, 283.15 K): 0.11 | solubility (mole fraction) (in methyl acetate, 288.15 K): 0.127 | solubility (mole fraction) (in methyl acetate, 293.15 K): 0.145 | solubility (mole fraction) (in methyl acetate, 298.15 K): 0.166 | solubility (mole fraction) (in methyl acetate, 303.15 K): 0.189 | solubility (mole fraction) (in methyl acetate, 308.15 K): 0.214 | solubility (mole fraction) (in methyl acetate, 313.15 K): 0.24 | solubility (mole fraction) (in methyl acetate, 318.15 K): 0.269 | solubility (mole fraction) (in methyl acetate, 323.15 K): 0.298 | solubility (mole fraction) (in n-butyl acetate, 278.15 K): 0.0526 | solubility (mole fraction) (in n-butyl acetate, 283.15 K): 0.0614 | solubility (mole fraction) (in n-butyl acetate, 288.15 K): 0.0725 | solubility (mole fraction) (in n-butyl acetate, 293.15 K): 0.0835 | solubility (mole fraction) (in n-butyl acetate, 298.15 K): 0.0969 | solubility (mole fraction) (in n-butyl acetate, 303.15 K): 0.111 | solubility (mole fraction) (in n-butyl acetate, 308.15 K): 0.128 | solubility (mole fraction) (in n-butyl acetate, 313.15 K): 0.145 | solubility (mole fraction) (in n-butyl acetate, 318.15 K): 0.165 | solubility (mole fraction) (in n-butyl acetate, 323.15 K): 0.189 | solubility (mole fraction) (in n-hexyl acetate, 278.15 K): 0.0377 | solubility (mole fraction) (in n-hexyl acetate, 283.15 K): 0.0447 | solubility (mole fraction) (in n-hexyl acetate, 288.15 K): 0.0525 | solubility (mole fraction) (in n-hexyl acetate, 293.15 K): 0.0614 | solubility (mole fraction) (in n-hexyl acetate, 298.15 K): 0.0717 | solubility (mole fraction) (in n-hexyl acetate, 303.15 K): 0.0828 | solubility (mole fraction) (in n-hexyl acetate, 308.15 K): 0.0955 | solubility (mole fraction) (in n-hexyl acetate, 313.15 K): 0.11 | solubility (mole fraction) (in n-hexyl acetate, 318.15 K): 0.125 | solubility (mole fraction) (in n-hexyl acetate, 323.15 K): 0.144 | solubility (mole fraction) (in n-pentyl acetate, 278.15 K): 0.0448 | solubility (mole fraction) (in n-pentyl acetate, 283.15 K): 0.0526 | solubility (mole fraction) (in n-pentyl acetate, 288.15 K): 0.0615 | solubility (mole fraction) (in n-pentyl acetate, 293.15 K): 0.0717 | solubility (mole fraction) (in n-pentyl acetate, 298.15 K): 0.0833 | solubility (mole fraction) (in n-pentyl acetate, 303.15 K): 0.0964 | solubility (mole fraction) (in n-pentyl acetate, 308.15 K): 0.111 | solubility (mole fraction) (in n-pentyl acetate, 313.15 K): 0.126 | solubility (mole fraction) (in n-pentyl acetate, 318.15 K): 0.144 | solubility (mole fraction) (in n-pentyl acetate, 323.15 K): 0.165 | solubility (mole fraction) (in n-propyl acetate, 278.15 K): 0.0616 | solubility (mole fraction) (in n-propyl acetate, 283.15 K): 0.0722 | solubility (mole fraction) (in n-propyl acetate, 288.15 K): 0.0852 | solubility (mole fraction) (in n-propyl acetate, 293.15 K): 0.0981 | solubility (mole fraction) (in n-propyl acetate, 298.15 K): 0.112 | solubility (mole fraction) (in n-propyl acetate, 303.15 K): 0.13 | solubility (mole fraction) (in n-propyl acetate, 308.15 K): 0.148 | solubility (mole fraction) (in n-propyl acetate, 313.15 K): 0.17 | solubility (mole fraction) (in n-propyl acetate, 318.15 K): 0.191 | solubility (mole fraction) (in n-propyl acetate, 323.15 K): 0.215 | solubility (mole fraction) (in octyl acetate, 278.15 K): 0.0303 | solubility (mole fraction) (in octyl acetate, 283.15 K): 0.036 | solubility (mole fraction) (in octyl acetate, 288.15 K): 0.0424 | solubility (mole fraction) (in octyl acetate, 293.15 K): 0.0496 | solubility (mole fraction) (in octyl acetate, 298.15 K): 0.0576 | solubility (mole fraction) (in octyl acetate, 303.15 K): 0.0666 | solubility (mole fraction) (in octyl acetate, 308.15 K): 0.0774 | solubility (mole fraction) (in octyl acetate, 313.15 K): 0.0875 | solubility (mole fraction) (in octyl acetate, 318.15 K): 0.1 | solubility (mole fraction) (in octyl acetate, 323.15 K): 0.115
